Holding throughout (assay type): physicochemical
Data set [1] is described as follows: Gravimetric Vapor Sorption (GVS) hygroscopicity. The settings on record: for Weight change: GVS. From the text: Moreover, neither the mono-hydrochloride salt or the di-hydrochloride salt of MN-029 show any significant change in phase as measured by XRPD analysis of samples subjected to GVS analysis (see FIG. 6).
A short description of data set [2]: Aqueous solubility, 24 hours equilibration in water at 25° C., HPLC, pH and XRPD of residue. Particulars: for XRPD of solid residue: residue after 24 hours equilibration in water at 25° C. Here is the method:
Briefly, quantitative high performance liquid chromatography (HPLC) was used to determine the aqueous solubility. X-ray powder diffraction spectrometry was also used to characterize the thermodynamic solubility of the mono-hydrochloride and di-hydrochloride salts of MN-029. After a 24 hours equilibration of each salt form in water at 25° C., the residual solid material was separated from the aqueous solution and the pH of the aqueous sample was measured. The XRPD spectrum of the solid residue obtained from the MN-029 di-hydrochloride vial indicated the solid material to be the mono-hydrochloride salt of MN-029. […] Table 4 illustrates the data from aqueous solubility studies of the mono-hydrochloride and di-hydrochloride salts of MN-029.
The suspension was equilibrated at 25° C. for 24 hours then pH was measured. The suspension was filtered and the filtrate was diluted by a factor of 101. Quantization by HPLC with a reference to a standard solution. Different volumes of the standard, diluted, and undiluted solution were injected and solubility was calculated by integration of the peak found at the same time as the principle peak in the standard solution.

Data set [3] in a line: Log P, Log Pion, Log D by potentiometric titration (Sirius GlpKa, octanol:water). The settings on record: octanol:ionic-strength adjusted water. From the text:
Most drugs have an ideal log P value and any deviation from this idealized value results in reduced absorption, slow transport of drug to the site of action and consequently, a decrease in biological activity. Table 8, illustrates the predicted and measured values for partition coefficients of MN-029 di-hydrochloride. The data was collected by potentiometric titration using a Sirius GlpKa instrument using three ratios of octanol:ionic-strength adjusted water to generate Log P, Log Pion and Log D values and the raw data was analyzed using Refinement Pro Software V.1.0. The predicted value of Log P was obtained using ACD V. software and Syracuse KOWWIN V.1.67 softwares.

The nature of data set [4]: Solubility as a function of pH in buffers without and with 15% HPBCD. Particulars: for solubility at 5 days: thermodynamic from solid, read-out: MN-029 Solubility. Here is the method: Buffers were prepared to cover a pH range of 2 to 7. Approximately 5 to 10 milligrams of drug was weighed into an HPLC vial to which 1.00 mL of the appropriate buffer was added. The solutions were vortexed briefly and were then shaken for five days on an orbital shaker. The prolonged shaking was carried out because slow equilibration had been observed during the initial formulation studies with different salt forms of MN-029.
Buffers with 15% HPBCD were prepared from the previous buffers. One and a half grams of HPBCD was weighed into each of several 10 mL volumetric flasks. HPBCD was dissolved in and diluted to volume with the appropriate buffer. 15 to 20 milligrams of MN-029 di-hydrochloride was weighed out into an tared HPLC vial. To the di-hydrochloride salt was added 1.00 mL of each buffer and the solution was vortexed briefly to dissolve the salt. The solutions were placed on an orbital shaker for five days. Solubility results are shown in Table 10, and the pH solubility profile for the drug in the absence of HPBCD is shown in FIG. 8.

A short description of data set [5]: pKa, predicted (ACD) versus measured (Sirius GlpKa). From the text:
MN-029 has a primary, secondary and tertiary amino group. The pKa's of these amino groups, therefore, should play a role in aqueous solubility, stability and pharmacokinetics. Accordingly, the present inventor compared the predicted pKa's of the alanyl and ring nitrogen atoms to their measured pKa values and unexpectedly found a significant difference between the measured and predicted pKa values for the benzimidazole nitrogen atoms. Thus, for the acidic >N—H group of imidazole, there is approximately a 6-fold difference between the predicted and measured pKa values as shown in Scheme 3. For the more basic ring nitrogen (—N═), however, the difference between observe red and predicted pKa values is 30-fold. That is, the measured value of basicity for the unprotonated ring nitrogen is much lower than the predicted value.
Predicted pKa values were calculated using ACD pKa prediction software v. 9. Actual pKa values were collected on a Sirius GlpKa instrument with a D-PAS attachment. Measurements were made at 25° C. in aqueous solution by UV and in methanol water mixtures by potentiometry. The ionic-strength of the titration media was adjusted with 0.15 M aqueous KCl. The values found in methanol water mixtures were corrected to 0% co-solvent via a Yashuda-Shedlovsky extrapolation. The data were refined using Refinement Pro software v. 1.0. No difference in pKa between the tautomers of MN-029 di-hydrochloride were detected experimentally or theoretically.

Data set [6] in a line: Evaluation of other salt forms as active pharmaceutical ingredient. Particulars: reasons including instability, hygroscopicity and deliquescence even at moderate humidity. Here is the method:
The advantageous nature of the physicochemical properties of the di-hydrochloride salt of MN-029 seems to be borne out, not just in comparison with the mono-hydrochloride salt but also with three other salts that were prepared to determine each salt's potential to be an active pharmaceutical ingredient. These other salt forms were the mesylate, malonate and sulfate salts of denibulin. Each was deemed unsuitable for use in pharmaceutical formulations because of one or more reasons, including instability, hygroscopicity and deliquescence even at moderate humidity.

[7] abbreviates: water, 25° C., equilibration for 24 hours.

The solubility is the dissolved amount per volume that the medium holds.

Converted amounts (≈) assume the structure as drawn. Where two headings read alike, the source gives them in different places.

Regarding `COC(=O)Nc1nc2cc(Sc3ccc(NC(=O)[C@H](C)N)cc3)ccc2[nH]1.Cl` [MN-029 mono-hydrochloride, reference compound], the Weight change entry in data set [1] (0% RH to 40% RH) is given as “+1.04 % w/w”; in data set [1] (40% RH to 90% RH, listed as A063866), “Reversible uptake of +2.12% w/w”; in data set [1] (40% RH to 90% RH, listed as MN029*HCl), “+2.12 % w/w”; in data set [1] (90% RH to 0% RH), −3.39 % w/w. Also, the “XRPD of residue after GVS” value in data set [1] (sample subjected to GVS) is given as “No significant difference”. Moreover, the “XRPD of solid residue” value is on record as “No significant difference” in data set [2] (listed as A063866) and “No significant” in data set [2] (listed as MN-029*HCl). Further, the Concentration of filtrate in data set [2] (setting [7]) is 0.63 mg/ml of free base. For the same compound, the “pH of saturated solution” value in data set [2] (setting [7]) was 2.37. Also, the “Measured LogP” value in data set [3] was determined as 2.64. The “Measured LogPion(cation)” value in data set [3] came out at 0.93. Besides, the “Measured LogD7.4” value in data set [3] (pH 7.4) was determined as 2.10.

Turning to `COC(=O)Nc1nc2ccc(Sc3ccc(NC(=O)[C@H](C)N)cc3)cc2[nH]1` [MN-029, carbamic acid N-[6-[[4-[[(2S)-2-amino-1-oxopropyl]amino]phenyl]thio]-1H-benzimidazol-2-yl]-methyl ester], the “MN-029 Solubility” value in data set [4] (Without HPBCD, buffer pH 2.0, final pH 2.10, five days shaking) was determined as 6160 µg/mL. The solubility at 5 days in data set [4] (aqueous buffer with 15% HPBCD, pH 2, aqueous with cosolvent or surfactant or cyclodextrin, With 15% HPBCD, buffer pH 2.0, final pH 2.03) is greater than 20900 µg/mL; in data set [4] (aqueous buffer with 15% HPBCD, pH 3, aqueous with cosolvent or surfactant or cyclodextrin, With 15% HPBCD, buffer pH 3.0, final pH 3.11), greater than 24400 µg/mL; in data set [4] (aqueous buffer with 15% HPBCD, pH 4, aqueous with cosolvent or surfactant or cyclodextrin, With 15% HPBCD, buffer pH 4.0, final pH 3.98) it was greater than 21500 µg/mL; in data set [4] (aqueous buffer with 15% HPBCD, pH 5, aqueous with cosolvent or surfactant or cyclodextrin, With 15% HPBCD, buffer pH 5.0, final pH 5.24) it was greater than 23000 µg/mL; in data set [4] (aqueous buffer with 15% HPBCD, pH 6, aqueous with cosolvent or surfactant or cyclodextrin, With 15% HPBCD, buffer pH 6.0, final pH 6.27), greater than 24300 µg/mL; in data set [4] (aqueous buffer with 15% HPBCD, pH 7, aqueous with cosolvent or surfactant or cyclodextrin, With 15% HPBCD, buffer pH 7.0, final pH 6.90), greater than 22700 µg/mL. The solubility at 5 days came out at 290 µg/mL (≈ 752 µM) in data set [4] (aqueous buffer, pH 3, aqueous buffer, Without HPBCD, buffer pH 3.0, final pH 3.35); 560 µg/mL (≈ 1450 µM) in data set [4] (aqueous buffer, pH 4, aqueous buffer, Without HPBCD, buffer pH 4.0, final pH 3.92); 150 µg/mL (≈ 389 µM) in data set [4] (aqueous buffer, pH 5, aqueous buffer, Without HPBCD, buffer pH 5.0, final pH 4.93); 130 µg/mL (≈ 337 µM) in data set [4] (aqueous buffer, pH 6, aqueous buffer, Without HPBCD, buffer pH 6.0, final pH 6.24); 26 µg/mL (≈ 67.5 µM) in data set [4] (aqueous buffer, pH 7, aqueous buffer, Without HPBCD, buffer pH 7.0, final pH 6.96). The entries for the “difference between predicted and measured pKa values” in data set [5] (acidic >N—H group of imidazole) and in data set [5] (alanyl amino group) were roughly 6 fold and “no significant difference”, respectively. For the same compound, the “difference between observed and predicted pKa values” in data set [5] (more basic ring nitrogen (—N═)) is recorded as 30 fold.

Regarding `O=S(=O)(O)O` [sulfate], the “suitability for use in pharmaceutical formulations” value in data set [6] was “unsuitable”.

Take malonate: the “suitability for use in pharmaceutical formulations” value in data set [6] is “unsuitable”.

Values taken from patent US8633324B2, “Denibulin di-hydrochloride” (Medicinova, Inc., priority 2011, dated 2014).
